Data set [1] deals with Plasmodium falciparum. As to the kind of experiment: Antimalarial activity against chloroquine-sensitive asexual Plasmodium falciparum NF54 infected in human erythrocytes assessed as inhibition of parasite proliferation after 96 hrs by SYBR Green I fluorescence based assay. In kind it is functional, organism-based. The following applies: NF54, 96 h.
The nature of data set [2]: Resistance index, ratio of IC50 for multi-drug-resistant Plasmodium falciparum K1 infected in human erythrocytes to IC50 for chloroquine-sensitive asexual Plasmodium falciparum NF54 infected in human erythrocytes. It is filed as functional.
Data set [3] in a line: Resistance index, ratio of IC50 for multi-drug-resistant Plasmodium falciparum W2 infected in human erythrocytes to IC50 for chloroquine-sensitive asexual Plasmodium falciparum NF54 infected in human erythrocytes. It is filed as functional.
In data set [4] the test system is Plasmodium falciparum. Put plainly: Antimalarial activity against multidrug resistant Plasmodium falciparum K1 infected in human erythrocytes assessed as inhibition of parasite proliferation after 96 hrs by SYBR Green I fluorescence based assay. In kind it is functional, organism-based. The following applies: K1, 96 h.
Data set [5] relates to Plasmodium falciparum. Put plainly: Antimalarial activity against multidrug resistant Plasmodium falciparum W2 infected in human erythrocytes assessed as inhibition of parasite proliferation after 96 hrs by SYBR Green I fluorescence based assay. In kind it is functional, organism-based. The following applies: W2, 96 h.
In data set [6] the test system is Plasmodium falciparum. Put plainly: Antimalarial activity against chloroquine-sensitive asexual Plasmodium falciparum NF54 infected in human erythrocytes assessed as inhibition of parasite proliferation at 1 uM after 96 hrs by SYBR Green I fluorescence based assay relative to control. In kind it is functional. Particulars: NF54, 96 h.
Data set [7] can be described thus: Cytotoxicity against human WI38 cells assessed as growth inhibition after 48 hrs by sulforhodamine B assay. It is filed as cell-based. The following applies: WI-38, 48 h. On the technique in general: Sulforhodamine B stains cellular protein and so reports cell mass.
For data set [8], the system named is Plasmodium falciparum. Put plainly: Antimalarial activity against chloroquine-sensitive asexual Plasmodium falciparum NF54 infected in human erythrocytes assessed as inhibition of parasite proliferation at 5 uM after 96 hrs by SYBR Green I fluorescence based assay relative to control. The following applies: NF54, 96 h. It is filed as functional.
Data set [9] concerns Plasmodium falciparum. Put plainly: Antimalarial activity against chloroquine-sensitive asexual Plasmodium falciparum NF54 infected in human erythrocytes assessed as inhibition of parasite proliferation at 100 to 500 nM after 96 hrs by SYBR Green I fluorescence based assay. In kind it is functional, organism-based.
Data set [10] is described as follows: Selectivity index, ratio of IC50 for human WI38 cells to IC50 chloroquine-sensitive asexual Plasmodium falciparum NF54 infected in human erythrocytes. It is filed as toxicity, cell-based, WI-38. The following applies: read-out: Ratio IC50.
Data set [11] is described as follows: Acidic dissociation constant, pKa of compound. It is filed as physicochemical.
The nature of data set [12]: Solubility of compound in water. In kind it is physicochemical.
Data set [13] in a line: Lipophilicity, log P of compound. It is filed as physicochemical. Particulars: octanol/water.

Experimental findings from ChEMBL document CHEMBL3808317, “Straightforward conversion of decoquinate into inexpensive tractable new derivatives with significant antimalarial activities” (Bioorg Med Chem Lett, 2016) are described below.

A word on the IC50: it is the concentration that inhibits the measured activity by half. As usually defined, the inhibition is the change of the read-out against control, counted positive when it falls. What is called pKa is the negative logarithm of the acid dissociation constant. For orientation: solubility means how much of the substance goes into solution per volume. Broadly, the logP is the decadic logarithm of the partition coefficient of the neutral form, usually between octanol and water.

SMILES strings stand for the structures. ≈ marks a conversion by molar mass, not a printed value. Calls of active or inactive are those of the source. The rule behind the calls is not given here.

Regarding `CO[C@H]1O[C@@H]2O[C@@]3(C)CC[C@H]4[C@H](C)CC[C@@H]([C@H]1C)[C@@]24OO3` [ARTEMETHER], the IC50 in the data set on Plasmodium falciparum [1] was found to be 0.00577 µM; in the data set with Plasmodium falciparum [4], 0.00726 µM; in the data set with Plasmodium falciparum [5], 0.0045 µM. The “Ratio IC50” value in data set [2] was found to be 1.3; in data set [3], 0.8.
Regarding `CCCCCCCCCCOc1cc2c(=O)c(C(=O)NCc3ccc(F)cc3)c[nH]c2cc1OCC`, the inhibition at 1 µM with Plasmodium falciparum [6] is more than 70%. Besides, the IC50 is more than 100 µM in data set [7], 0.0331 µM in the data set on Plasmodium falciparum [1], 0.0631 µM with Plasmodium falciparum [4] and 0.0086 µM with Plasmodium falciparum [5]. Moreover, the “Ratio IC50” value in [2] worked out at 1.9; in data set [3], 0.2. Besides, the inhibition at 5 µM in the data set on Plasmodium falciparum [8] is more than 50%. The inhibition entry in the data set on Plasmodium falciparum [9] was “Active”. Further, in data set [10], the selectivity ratio is more than 3020.
On to `CCCCCCCCCCOc1cc2c(=O)c(C(=O)OCC)cn(C(C)=O)c2cc1OCC`, for which, in the data set with Plasmodium falciparum [6], the inhibition at 1 µM was more than 70%. Besides, the 50% inhibitory concentration (IC50) was more than 100 µM in [7], 0.0049 µM with Plasmodium falciparum [1], 0.012 µM in the data set with Plasmodium falciparum [4] and 0.0085 µM in the data set with Plasmodium falciparum [5]. Moreover, the “Ratio IC50” value came out at 2.5 in [2] and 1.7 in data set [3]. Further, the inhibition at 5 µM in the data set with Plasmodium falciparum [8] was more than 50%. In addition, the inhibition entry in the data set with Plasmodium falciparum [9] was “Active”. In addition, the selectivity ratio in [10] was more than 20400.
With `CCCCCCCCCCOc1cc2c(=O)c(C(=O)OCC)cn(C(=O)N3CCCCC3)c2cc1OCC`, the inhibition at 1 µM in the data set on Plasmodium falciparum [6] is more than 70%. Moreover, the IC50 turned out to be 8.5 µM in data set [7], 0.0183 µM in the data set with Plasmodium falciparum [1], 0.0891 µM in the data set on Plasmodium falciparum [4] and 0.0282 µM in the data set with Plasmodium falciparum [5]. Besides, the “Ratio IC50” value in [2] is on record as 4.9; in data set [3], 1.5. The inhibition at 5 µM in the data set on Plasmodium falciparum [8] is more than 50%. In the data set on Plasmodium falciparum [9], the inhibition result is “Active”. Besides, the selectivity ratio in data set [10] was 465.
Turning to `CCCCCCCCCCOc1cc2c(=O)c(C(=O)OCC)cn(S(=O)(=O)C3CC3)c2cc1OCC`, the inhibition at 1 µM with Plasmodium falciparum [6] was more than 70%. Further, the inhibition at 5 µM in the data set with Plasmodium falciparum [8] is more than 50%.
Take `C[C@H]1[C@H](OC(=O)CCC(=O)O)O[C@@H]2O[C@@]3(C)CC[C@H]4[C@H](C)CC[C@@H]1[C@@]24OO3` [ARTESUNATE]: the IC50 is more than 100 µM in data set [7], 0.00788 µM with Plasmodium falciparum [1], 0.00897 µM in the data set on Plasmodium falciparum [4] and 0.00677 µM in the data set with Plasmodium falciparum [5]. The entries for the “Ratio IC50” value in data set [2] and in [3] were 1.4 and 0.8, respectively. For the same molecule, in [10], the selectivity ratio was more than 12700.
Turning to `CCCCCCCCCCOc1cc2c(=O)c(C(=O)NCCCn3ccnc3)c[nH]c2cc1OCC`, the inhibition at 1 µM in the data set with Plasmodium falciparum [6] was more than 70%. The inhibition at 5 µM with Plasmodium falciparum [8] is more than 50%.
Taken in the same sequence, the figures for `CCCCCCCCCCOc1cc2c(=O)c(C(=O)OCC)cn(C(=O)N(C)C)c2cc1OCC` were more than 70% and more than 50%.
For `CCCCCCCCCCOc1cc2c(=O)c(C(=O)NCCOCCO)c[nH]c2cc1OCC`, the inhibition at 1 µM in the data set with Plasmodium falciparum [6] is more than 70%. Besides, the IC50 in data set [7] was 43.9 µM; in the data set on Plasmodium falciparum [1], 0.0404 µM; in the data set with Plasmodium falciparum [4], 0.0648 µM; in the data set with Plasmodium falciparum [5] it was 0.0185 µM. Besides, the “Ratio IC50” value in data set [2] was 1.6; in data set [3], 0.5. Besides, in the data set on Plasmodium falciparum [8], the inhibition at 5 µM was more than 50%. In addition, the inhibition result with Plasmodium falciparum [9] is “Active”. The selectivity ratio in data set [10] worked out at 1090.
Turning to `CCCCCCCCCCOc1cc2c(=O)c(C(=O)OCC)cn(C(=O)CC)c2cc1OCC`, the inhibition at 1 µM in the data set with Plasmodium falciparum [6] is more than 70%. In addition, the IC50 in data set [7] is more than 100 µM; in the data set on Plasmodium falciparum [1], 0.0154 µM; in the data set on Plasmodium falciparum [4], 0.0489 µM; with Plasmodium falciparum [5] it was 0.0115 µM. The “Ratio IC50” value is on record as 3.2 in data set [2] and 0.8 in data set [3]. Further, the inhibition at 5 µM with Plasmodium falciparum [8] was more than 50%. Moreover, in the data set on Plasmodium falciparum [9], the inhibition entry was “Active”. Also, in data set [10], the selectivity ratio was more than 6490.
As to `CCCCCCCCCCOc1cc2c(=O)c(C(=O)OCC)cn(S(C)(=O)=O)c2cc1OCC`, in the data set on Plasmodium falciparum [6], the inhibition at 1 µM is more than 70%. Moreover, the inhibition at 5 µM in the data set with Plasmodium falciparum [8] was more than 50%.
Taken in the same sequence, the figures for `CCCCCCCCCCOc1cc2c(=O)c(C(=O)NCc3ccco3)c[nH]c2cc1OCC` were more than 70% and more than 50%.
Taken in the same sequence, the figures for `CCCCCCCCCCOc1cc2c(=O)c(C(=O)NCc3ccccc3F)c[nH]c2cc1OCC` were more than 70% and more than 50%.
As to `CCCCCCCCCCOc1cc2c(=O)c(C(=O)NCCOC)c[nH]c2cc1OCC`, in the data set with Plasmodium falciparum [6], the inhibition at 1 µM is more than 70%. Besides, the inhibition at 5 µM in the data set on Plasmodium falciparum [8] was more than 50%.
For `CC[C@H]1CN2CCc3cc(OC)c(OC)cc3[C@@H]2C[C@@H]1C[C@H]1NCCc2cc(OC)c(OC)cc21` [EMETINE], the concentration for half-maximal inhibition (IC50) in data set [7] stood at 0.05 µM.
Consider `CCCCCCCCCCOc1cc2c(O)c(C(=O)OCC)cnc2cc1OCC` [DECOQUINATE], for which the inhibition at 1 µM in the data set with Plasmodium falciparum [6] is more than 70%. The same molecule yielded a pKa in data set [11] of 9.81. Besides, the IC50 was more than 100 µM in data set [7], 0.0266 µM in the data set on Plasmodium falciparum [1], 0.0649 µM in the data set with Plasmodium falciparum [4] and 0.0154 µM in the data set on Plasmodium falciparum [5]. Besides, in data set [12], the concentration in solution (solubility) came to 0.06 µg/mL (≈ 0.144 µM). The figures for the “Ratio IC50” value in data set [2] and in [3] were 2.4 and 0.6, respectively. The inhibition at 5 µM in the data set with Plasmodium falciparum [8] was more than 50%. In addition, the inhibition result with Plasmodium falciparum [9] is “Active”. In data set [10], the selectivity ratio is more than 3760. The lipophilicity (logP) in data set [13] was determined as 8.19.
As to `CCCCCCCCCCOc1cc2c(=O)c(C(=O)N3CCOCC3)cn(C(C)=O)c2cc1OCC`, the inhibition at 1 µM in the data set with Plasmodium falciparum [6] was more than 70%. In addition, in the data set on Plasmodium falciparum [8], the inhibition at 5 µM is more than 50%.
Taken in the same sequence, the figures for `CCCCCCCCCCOc1cc2c(=O)c(C(=O)NCCN(C)C)c[nH]c2cc1OCC` were more than 70% and more than 50%.
Taken in the same sequence, the figures for `CCCCCCCCCCOc1cc2c(=O)c(C(=O)N3CCOCC3)cn(S(=O)(=O)C3CC3)c2cc1OCC` were more than 70% and more than 50%.
